The record followed here is patent US5834500A, “Sulfur-containing heterocyclic bradykinin antagonists, process for their preparation, and their use” (Hoechst Aktiengesellschaft, priority 1996, dated 1998).

Test [1] deals with isolated guinea pig pulmonary artery. Put plainly: bradykinin-induced contraction of isolated guinea pig pulmonary artery. The conditions noted are these: Cavia porcellus, 10 min; isolated vessel strip, contraction by 2×10^-7 mol/l bradykinin, 10 minutes exposure; read-out: antagonistic effect expressed as IC50-value on the guinea pig pulmonary artery. As for the experimental part:
For testing the novel compounds on the isolated pulmonary artery, guinea pigs (Dunkin Hartley) having a weight of 400-450 g are killed by a blow to the neck.
The thorax is opened and the pulmonary artery is carefully dissected out. The surrounding tissue is carefully removed and the pulmonary artery is cut open spirally at an angle of 45°.
The blood vessel strip, which is 2.5 cm long and 3-4 mm wide, is fastened in a 10 ml-capacity organ bath which is filled with Ringer solution. […]
95% O2 and 5% CO2 is bubbled through the solution, which is warmed to 37° C. The pH is 7.4 and the initial load on the vessel strip is 1.0 g.
The isotonic contraction changes are detected with a lever attachment and a high frequency modem (distance measuring device) from Hugo Sachs and registered on a potentiometric recorder (BEC, Goerz Metrawatt SE 460).
The experiment is started after 1 hour of equilibration. Once the maximum sensitivity of the vessel strips to 2×10^-7 mol/l bradykinin has been reached--bradykinin causes the vessel strips to contract--the test compounds, at doses of 5×10^-8 -1×10^-5 mol/l, are allowed to exert their effect for 10 minutes in each case and, after bradykinin has been added once again, the decrease in the effect of bradykinin is compared with the control.

A further test concerns the target T1, bradykinin B2 receptor (Cavia porcellus, UniProt O70526).
T1 construct: from tissue; host or cells: guinea pig ileum membranes
T1 sequence (O70526 1-372): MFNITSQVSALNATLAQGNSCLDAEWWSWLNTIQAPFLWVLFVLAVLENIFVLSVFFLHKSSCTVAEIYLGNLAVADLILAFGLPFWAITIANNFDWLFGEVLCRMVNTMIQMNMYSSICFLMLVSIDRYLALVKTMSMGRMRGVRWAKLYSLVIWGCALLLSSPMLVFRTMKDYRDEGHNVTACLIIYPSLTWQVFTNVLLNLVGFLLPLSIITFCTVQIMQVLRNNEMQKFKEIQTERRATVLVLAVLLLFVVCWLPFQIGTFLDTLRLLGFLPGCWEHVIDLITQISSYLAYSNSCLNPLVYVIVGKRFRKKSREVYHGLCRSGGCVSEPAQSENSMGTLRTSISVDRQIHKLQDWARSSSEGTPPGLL
Put plainly: binding to the bradykinin B2 receptor of guinea pig ileum (3H-bradykinin competition). As to conditions: guinea pig ileum membranes, 3H-bradykinin 0.25 to 0.3 nmol/l; read-out: antagonistic effect expressed as IC50-value on the guinea pig B2 receptor. How it is done: The method of measuring binding to the bradykinin B2 receptor of guinea pig ileum is described below (R. B. Innis et al., Proc. NatI. Acad. Sci. USA; 17 (1981) 2630): […] Ligand: ^3 H-BRADYKININ (from NEN Du Pont) 2. Buffer mixtures: a) TES buffer: 25 mM TES (SIGMA, Cat. No.: T-4152) […] Cat. No.: P-9375) b) Incubation buffer: 25 mM TES (SIGMA; Cat. No.: T-4152) […] Cat. No.: P-9375) […] Cat. No.: A-7906) 140 μg/ml bacitracin (SIGMA; Cat. No.: B-0125) […] Cat. No.: D-0632) […] Both buffers are adjusted to pH 6.8 with 5 molar NaOH. 3. Membrane preparation: Guinea pig ilea are roughly freed of intestinal contents by carefully smoothing them out and are cleansed in 0.9% NaCl solution. The approx. 2 cm-long ilea pieces are transferred into ice-cold TES buffer (approx. 1 g/10 ml) and homogenized with an Ultraturrax for approx. 30 sec. in an ice bath. The homogenate is then filtered through 3 layers of gauze and the filtrate is centrifuged at 50,000 g for 10 minutes. The supernatant is discarded and the pellet is rehomogenized in the same volume of TES buffer and centrifuged once again at 50,000 g for 10 minutes. The pellet is rehomogenized in incubation buffer (approx. 1 g/5 ml) and frozen down at -70° C., in 2 ml aliquots, in cryotubes. The protein concentration of the finished membrane suspension is determined by the LOWRY method and should be approx. 15 μg/100 μl. 4. Binding test: All the incubations are carried out, at room temperature for 60 minutes, in a 200 μl volume on microtiter plates (96×300 μl). All the mixtures are in incubation buffer. For this, 50 μl of the radioligand, 50 μl of the preparation to be tested and 100 μl of the membrane suspension are pipetted consecutively into the wells of the microtiter plate. b) Competition experiments (IC50): A fixed quantity of the radioactive ligand (from 0.25 to 0.3 nmol/l ^3 H-bradykinin) and different concentrations of the unlabeled agonists or antagonists are employed for this purpose. 50 μl of the preparations or the standards to be tested, are added, in concentrations of from 10^-5 to 10^-10 mol/l, to in each case 50 μl of the ^3 H-bradykinin solution and the reaction is started by adding 100 μl of membrane suspension. […] As a rule, the preparations which are to be tested for competition are dissolved, at a concentration of 1 mmol/l, in dimethyl sulfoxide (DMSO) and subsequently subjected to further dilution with DMSO. This solution is then diluted 1:25 with incubation buffer. […] The filters, which are still moist, are punched out into mini scintillation vials, which are filled with 3 ml of scintillator. After having been left to soak for approx. 12 hours, the samples are shaken up briefly and measured in a beta counter. c) Screening: […] 4. Evaluation: The evaluation is effected by means of the LIGAND program package (McPherrson, Minson & Rodbard, Marketing: Elsevier-BIOSOFT), which performs the necessary calculations for determining IC50 and Ki values. This program also performs graphic depictions of the saturation and displacement curves and also SCATCHARD plots, HILL plots or HOFSTEE plots.

Molecules are shown by their SMILES. Some results are limits rather than exact numbers.

`Cc1nc2c(OCc3c(Cl)ccc(N(C)C(=O)CNC(=O)/C=C/c4ccc(C(F)(F)F)cc4)c3Cl)cccc2s1` [Example 3]: the results for the IC50 (in test [1]; at bradykinin B2 receptor) were below 1000 nM and below 100 nM, respectively.
Consider `C=C/C=C/C(=O)NCC(=O)N(C)c1ccc(Cl)c(COc2cccc3sc(C)nc23)c1Cl` [Example 6], for which the IC50 is below 1000 nM in test [1] and below 100 nM at bradykinin B2 receptor.
Take `COc1cccc(/C=C/C(=O)NCC(=O)N(C)c2ccc(Cl)c(COc3cccc4sc(C)nc34)c2Cl)c1` [Example 11]: the IC50 in test [1] is below 1000 nM; at bradykinin B2 receptor, below 100 nM.
The like results for `Cc1nc2c(OCc3c(Cl)ccc(N(C)C(=O)CNC(=O)/C=C/c4ccco4)c3Cl)cccc2s1` [Example 12] were, in that order, below 1000 nM and below 100 nM.
`Cc1ccc(/C=C/C(=O)NCC(=O)N(C)c2ccc(Cl)c(COc3cccc4sc(C)nc34)c2Cl)cc1` [Example 23]: the results for the IC50 (in test [1]; on bradykinin B2 receptor) were below 1000 nM and below 100 nM, respectively.
In the case of `Cc1nc2c(OCc3c(Cl)ccc(N(C)C(=O)CNC(=O)COc4ccc(OC(F)(F)F)cc4)c3Cl)cccc2s1` [Example 37], the IC50 in test [1] was below 1000 nM; at bradykinin B2 receptor, below 100 nM.

For orientation: IC50 means the concentration that gives 50% inhibition.
